Results on ten molecules are retold here after EP0107988A2, “Imidazo (1,2-a)quinolines, their salts, their preparation, their use as medicaments and compositions containing them” (ROUSSEL-UCLAF, priority 1982, dated 1984).

Structures are written as SMILES.

This assay concerns the target récepteurs des benzodiazépines. As to the kind of experiment: Benzodiazepine receptor affinity: [3H]flunitrazepam binding, modified method of Squires and Braestrup. Details: species or system rats. The note with it: concentration inhibiting by 50 % the specific binding of 0,6 nanomoles (3H) flunitrazépam; rat forebrain membrane preparations; read-out: CI50 (the source's name). An excerpt: L'affinité des composés pour les récepteurs des benzodiazépines a été évaluée en utilisant un radioligand/^3H/flunitra- zépam et la méthode de Squires et Braestrup (Nature, 1977, 266,732) modifiée.
Les valeurs ci-dessus sont les concentrations nanomolaires du produit testé qui inhibent dans une proportion de 50 % la liaison spécifique de 0,6 nanomoles (^3H) flunitrazépam tant de préparations de membranes de cerveaux antérieurs de rats (CI50) nanomoles.
Take `CCc1ccc2c(c1)c(OC)cc1nc(C(OC(C)=O)c3ccccc3)cn12` (stereo not shown) [Exemple 1]: the IC50 was 5000 nM.

For `CCc1ccc2c(c1)c(OC)cc1nc(C(=O)c3ccccc3)c(Br)n12` [Exemple 2, (1-bromo 7-éthyl 5-méthoxyimidazo/1,2-a/quinoléin-2-yl)phénylméthanone], the IC50 stood at 3200 nM.

As for `CCc1ccc2c(c1)c(OC)cc1nc(C(=O)c3ccccc3)c(Cl)n12` [Exemple 3, (1-chloro 7-éthyl 5-méthoxyimidazo/1,2-a/quinoléin-2-yl)phénylméthanone], the IC50 was found to be 975 nM.

Consider `CCc1ccc2c(c1)c(O)cc1nc(C(=O)c3ccccc3)cn12` [Exemple 4, 2-benzoyl 7-éthylimidazo/1,2-a/quinoléin-501], for which the IC50 is 430 nM.

Consider `CCc1ccc2c(c1)c(OC)cc1nc(C(C)(O)c3ccccc3)cn12` (stereo not shown) [Exemple 5, 1-(7-éthyl 5-méthoxyimidazo/1,2-a/quinoléin-2-yl) 1-phényléthanol], for which the IC50 came to 8000 nM.

For `CCc1ccc2c(c1)c(OC(C)=O)cc1nc(C(=O)c3ccccc3)cn12` [Exemple 6, Acétatede 2-benzoyl 7-éthylimidazo/1,2-a/quinoléin-2-vle], the IC50 came to 395 nM.

Consider `C=C(c1ccccc1)c1cn2c(cc(OC)c3cc(CC)ccc32)n1` [Exemple 7, Chlorhydratede 7-éthyl 5-méthoxy 2-(1-phénylvinyl) imidazo/1,2-a/quinoléine], for which the IC50 was determined as 120 nM.

For the molecule `CCc1ccc2c(c1)c(OC)c(C)c1nc(C(=O)c3ccccc3)cn12` [Exemple 8, (7-éthyl 5-méthoxy 4-méthylimidazo/1,2-a/quinoléin-2-yl)phénylméthanone], the IC50 was 7 nM.

For the molecule `CCc1ccc2c(c1)c(C)cc1nc(C(=O)c3ccccc3)cn12` [Exemple 9], the IC50 stood at 250 nM.

As to `CCc1ccc2c(c1)c(OC)c(CC)c1nc(C(=O)c3ccccc3)cn12` [Exemple 10, (4,7-diéthyl 5-méthoxyimidazo/1,2-a/quinoléin-2-yl) phénylméthanone], the IC50 was found to be 135 nM.
